Laboratory results published in patent publication US20100184852A1, “ORGANIC COMPOUNDS FOR TREATMENT OF DISORDERS CONNECTED TO IMPAIRED NEUROTRANSMISSION” (priority 2006, published 2010).

Experiments:
[1] = biological target: T1, human serotonin re-uptake transporter (hSERT) (Homo sapiens, UniProt P31645); assay: Serotonin uptake inhibition in HEK-293 cells expressing hSERT; assay type: cell-based; conditions: transfected HEK-293 cells; 20 nM (3H) serotonin, 30 minutes; average +/− s.e.m.; read-out: IC50 for tritiated serotonin uptake
T1 construct: host or cells: HEK-293
T1 sequence (P31645 whole entry): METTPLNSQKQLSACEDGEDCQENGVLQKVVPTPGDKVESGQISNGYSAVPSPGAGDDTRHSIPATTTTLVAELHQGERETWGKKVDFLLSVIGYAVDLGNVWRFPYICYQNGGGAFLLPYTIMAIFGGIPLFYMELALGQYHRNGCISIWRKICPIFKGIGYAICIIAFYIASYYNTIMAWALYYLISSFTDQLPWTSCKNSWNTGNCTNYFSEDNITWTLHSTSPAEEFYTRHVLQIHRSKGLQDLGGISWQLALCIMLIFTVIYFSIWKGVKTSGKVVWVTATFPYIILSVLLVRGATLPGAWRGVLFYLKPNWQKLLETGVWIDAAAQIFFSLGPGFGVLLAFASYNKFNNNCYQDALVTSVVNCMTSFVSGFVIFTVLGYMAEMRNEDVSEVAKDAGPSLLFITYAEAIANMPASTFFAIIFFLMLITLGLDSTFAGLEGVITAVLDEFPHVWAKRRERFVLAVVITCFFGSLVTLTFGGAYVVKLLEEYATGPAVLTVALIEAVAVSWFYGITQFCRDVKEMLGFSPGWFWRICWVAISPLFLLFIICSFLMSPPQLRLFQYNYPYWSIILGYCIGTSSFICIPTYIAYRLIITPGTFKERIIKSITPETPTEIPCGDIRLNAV
Procedure: HEK-293 cells stably expressing the human serotonin re-uptake transporter (hSERT) were obtained from R. Blakely, Vanderbilt University, USA. The cells were routinely grown in Dulbeco's Modified Eagles Medium, purchased from Bioconcept, Allschwil, Switzerland containing 10% fetal calf serum, penicillin, streptomycin, L-glutamine and the antibiotic G418 and passaged by trypsinisation. One day prior to the assay cells were seeded in the above mentioned medium. Immediately prior to the assay the medium was replaced by Krebs Ringers bicarbonate buffer, purchased from Sigma Chemicals Ltd., supplemented with 35 μM pargyline, 2.2 mM CaCl2, 1 mM ascorbic acid and 5 mM N-2-hydroxyethylpiperazine-N′-2-ethanesulfonic acid (buffer called “Hepes”). Serotonin uptake into the cells was determined by addition of radio-labeled (3H) serotonin (Amersham Biosciences GE Healthcare, Slough, UK) to a concentration of 20 nM, and incubation for 30 minutes at room temperature. Following removal of unincorporated label by gentle washing three times with the above buffer, incorporated serotonin was quantified by liquid scintillation counting.
The effect of the compounds of formula I on the serotonin uptake was determined by its inclusion in the assay at a range of concentrations between 0.03 and 100 μM for 10 minutes prior to and during the addition of (3H) serotonin/citalopram. Serotonin uptake via the transporter was inhibited by ligustilide, 3-butylphthalide, senkyunolide A, senkyunolide C, senkyunolide B, and cnidilide, respectively, in a dose dependent manner, with IC50 values as shown in Table 2.

[2] = biological target: T2, Monoamine oxidase A (MAO-A) (Homo sapiens, UniProt P21397); assay: Monoaminooxidase A inhibition (H2O2/vanillic acid/HRP readout); assay type: biochemical; conditions: substrate p-tyramine 0.5 mM; +/− s.e.m.; read-out: IC50 [μM] for Inhibition of MAO-A
T2 sequence (P21397 1-527): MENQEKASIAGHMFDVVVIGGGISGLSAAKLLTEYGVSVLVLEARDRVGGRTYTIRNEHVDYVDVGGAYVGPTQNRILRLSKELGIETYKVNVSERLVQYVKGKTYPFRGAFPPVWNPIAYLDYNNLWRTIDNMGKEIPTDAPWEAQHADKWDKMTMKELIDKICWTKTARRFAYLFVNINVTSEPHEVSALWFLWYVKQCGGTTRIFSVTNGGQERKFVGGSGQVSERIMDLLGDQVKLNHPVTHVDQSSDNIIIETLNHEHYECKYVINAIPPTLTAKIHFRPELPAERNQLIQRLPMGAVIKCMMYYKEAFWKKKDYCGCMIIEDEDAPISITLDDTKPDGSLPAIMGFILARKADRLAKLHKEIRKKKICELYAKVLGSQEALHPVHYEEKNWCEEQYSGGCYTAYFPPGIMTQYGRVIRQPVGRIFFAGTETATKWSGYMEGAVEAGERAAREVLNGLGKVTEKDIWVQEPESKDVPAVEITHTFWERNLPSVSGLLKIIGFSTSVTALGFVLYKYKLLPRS
Procedure: (§1) The organic amines p-tyramine or benzylamine were used as substrates for the Monoamine oxidase A (MAO-A) and B (MAO-B) enzymes respectively. The H2O2 produced by this reaction was quantified by reaction with vanillic acid, catalysed by horse radish peroxidase (HRP).
(§2) The reactions were carried out in polystyrene microtitre plates. The MAO enzymes (final concentration 2 U/ml) were mixed with either p-tyramine (Sigma, final concentration 0.5 mM) or benzylamine (Sigma, final concentration 0.5 mM) as appropriate and the chromogenic solution (containing vanillic acid (Fluka), 4-aminoantipyrine (Fluka) and horse radish peroxidase (Sigma), final concentrations 0.25 mM, 0.125 mM and 1 U/ml respectively) in 0.2 M potassium phosphate buffer pH 7.6. The reactions were followed in a microtitre plate absorbance reader eg Spectramax M5 (Molecular Devices Corporation). Absorbance readings at 495 nm were taken every 15 seconds for 40 minutes and the initial reaction velocities calculated by linear regression using SOFTmaxPro (Molecular Devices Corporation).
(§3) The effect of ligustilide, 3-butylphthalide, senkyunolide C and cnidilide on the monoamine oxidase enzymes was determined by their inclusion in the assay at a range of concentrations between 0.03 and 100 μM for 10 minutes prior to and during the incubation with substrate. To determine the effect of the compounds on the HRP catalyzed portion of the reaction, the MAO enzyme was replaced by H2O2 (Molecular Probes, final concentration 0.2 mM). The reactions containing MAO-A and MAO-B were both inhibited by […] according to formula I in a dose dependent manner, whilst the control reaction, was unaffected. The measured IC50 values for inhibition of monoamine oxidase activity by ligustilide, 3-butylphthalide, senkyunolide C and enidilide, respectively, are shown in Table 3.

[3] = biological target: T3, Monoamine oxidase B (MAO-B) (Homo sapiens, UniProt P27338); assay: Monoaminooxidase B inhibition (H2O2/vanillic acid/HRP readout); assay type: biochemical; conditions: substrate benzylamine 0.5 mM; +/− s.e.m.; read-out: IC50 [μM] for Inhibition of MAO-B
T3 sequence (P27338 1-520): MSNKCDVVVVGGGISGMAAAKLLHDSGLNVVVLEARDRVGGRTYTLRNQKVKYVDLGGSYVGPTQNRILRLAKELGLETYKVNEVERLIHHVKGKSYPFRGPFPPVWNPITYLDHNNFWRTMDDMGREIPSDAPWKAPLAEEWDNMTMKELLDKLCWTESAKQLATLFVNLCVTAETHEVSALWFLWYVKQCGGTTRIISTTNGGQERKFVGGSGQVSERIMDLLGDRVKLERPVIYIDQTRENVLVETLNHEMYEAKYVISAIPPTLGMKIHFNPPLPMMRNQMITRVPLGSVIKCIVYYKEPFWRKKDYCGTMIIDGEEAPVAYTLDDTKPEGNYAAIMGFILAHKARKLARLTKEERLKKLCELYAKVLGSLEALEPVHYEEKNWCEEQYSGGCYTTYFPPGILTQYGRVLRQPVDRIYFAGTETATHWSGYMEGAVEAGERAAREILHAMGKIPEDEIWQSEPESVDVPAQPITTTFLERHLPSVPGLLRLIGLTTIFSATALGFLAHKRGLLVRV
Procedure: as §1, §2, §3

[4] = system: mice; assay: Marble burying test; assay type: in vivo, mouse; conditions: 10 mg/kg p.o., −24, −5, −1 h
Procedure: A celery seed oil extract rich in phthalides was tested in the marble burying test. A crude extract from celery seed oil (Apium graveolens) obtained by supercritical CO2 fluid extraction of the seed was bought from Guanzhou Honsea Sunshine Bio Science & Technology, Guangzhou, 510620, Peopole's Republic of China. This extract (66.15 g) was distilled for about 2 hours in a ca. 30 cm Kugelrohr at a temperature of 125° C., under a pressure of 0.02 mbar. The distillate contained 18.12% butylphthalide, 0.87% butylidenphthalide, 35.37% senkyanolide, 20.99% sedanolide, 2.23% C16-fatty acid and 3.14% oleic acid, based on the total weight of the celery seed oil extract.
The marble burying test was performed in Type II cages (16×22 cm), which were filled with normal rodent bedding material, up to a depth of 4 cm, and the bedding was flattened gently by hand to ensure an even surface. […]
At the start of the test, mice were individually placed into the test cages and left to explore for 30 min. At the end of the test, the mice were removed from the cages and the number of marbles which have been buried (i.e. at least ⅔ covered with bedding) were counted. […]
Celery seed oil extract was evaluated after sub-chronic oral administration at 50, 100, 200, 300 mg/kg with fluoxetine at 10 mg/kg as reference substance and corn oil as vehicle. […]

SMILES	IC50 [1] [µM]	IC50 [2] [µM]	IC50 [3] [µM]	% MARBLES BURIED [4] [%]
CCCC[C@@H]1OC(=O)[C@@H]2C=CCC[C@H]12 [Cnidilide]	40.5	> 100	109	
CNCCC(Oc1ccc(C(F)(F)F)cc1)c1ccccc1 (stereo not drawn) [Fluoxetine]				−78
CCCC[C@@H]1OC(=O)C2=C1CCC=C2 [Senkyunolide A]	32.5			
CCC/C=C1\OC(=O)c2c(O)cccc21 [Senkyunolide B]	75			
CCC/C=C1\OC(=O)c2ccc(O)cc21 [Senkyunolide C]	31.4	2.72	2.14	
